In US12162820B2 (TAIWANJ PHARMACEUTICALS CO., LTD., priority 2019, dated 2024) one finds inhibition data, which are given here for eleven compounds.

Holding throughout (format): biochemical
Test [1] deals with T1, HDAC1 (Homo sapiens, UniProt Q13547).
T1 construct: purchased Enzo Life Sciences
The test is described as follows: HDAC Inhibition Screening Assay (FLUOR DE LYS Fluorimetric Drug Discovery Kit), HDAC1. Particulars: for inhibition at 2 µM: 2 μM compound; for inhibition at 10 µM: 10 μM compound; for inhibition at 50 µM: 50 μM compound. An outline of the steps:
(§1)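 Two-step fluorimetric kit: enzyme deacetylates acetylated-lysine substrate; developer then releases fluorophore. Test cpds 2, 10, 50 μM. Ex 360/485 nm, Em 460/530 nm. Activity = % of basal control minus baseline control.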

Test [2] concerns the target T2, HDAC2 (Homo sapiens, UniProt Q92769).
T2 construct: purchased Enzo Life Sciences
The test is described as follows: HDAC Inhibition Screening Assay (FLUOR DE LYS Fluorimetric Drug Discovery Kit), HDAC2. Conditions: for inhibition at 2 µM: 2 μM compound; for inhibition at 10 µM: 10 μM compound; for inhibition at 50 µM: 50 μM compound. In short, it runs like this: as §1

The target of test [3] is T3, HDAC3 (Homo sapiens, UniProt O15379).
T3 construct: purchased Enzo Life Sciences
The test is described as follows: HDAC Inhibition Screening Assay (FLUOR DE LYS Fluorimetric Drug Discovery Kit), HDAC3. Particulars: for inhibition at 2 µM: 2 μM compound; for inhibition at 10 µM: 10 μM compound; for inhibition at 50 µM: 50 μM compound. In short, it runs like this:
as §1

For test [4], the target named is T4, ATX (autotaxin) (Homo sapiens, UniProt Q13822).
T4 construct: purchased Cayman 10803
The test is described as follows: Autotaxin Inhibition Screening Assay (choline release from LPC, LPC-CR). Particulars: for inhibition at 4 µM: 4 μM compound; for inhibition at 20 µM: 20 μM compound; for inhibition at 50 µM: 50 μM compound. In short, it runs like this: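 Released choline from 100 μM 14:0 LPC, detected via choline oxidase–HRP–homovanillic acid fluorescence (320/450 nm) kinetically over 90 min, reports activity of 20 ng ATX. Buffer: 50 mM Tris pH 8.0, 50 mM CaCl2, 0.01% Triton X-100; test compounds 4, 20, 50 μM; percent inhibition from blank-subtracted slopes relative to vehicle.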

T3 sequence (O15379 whole entry): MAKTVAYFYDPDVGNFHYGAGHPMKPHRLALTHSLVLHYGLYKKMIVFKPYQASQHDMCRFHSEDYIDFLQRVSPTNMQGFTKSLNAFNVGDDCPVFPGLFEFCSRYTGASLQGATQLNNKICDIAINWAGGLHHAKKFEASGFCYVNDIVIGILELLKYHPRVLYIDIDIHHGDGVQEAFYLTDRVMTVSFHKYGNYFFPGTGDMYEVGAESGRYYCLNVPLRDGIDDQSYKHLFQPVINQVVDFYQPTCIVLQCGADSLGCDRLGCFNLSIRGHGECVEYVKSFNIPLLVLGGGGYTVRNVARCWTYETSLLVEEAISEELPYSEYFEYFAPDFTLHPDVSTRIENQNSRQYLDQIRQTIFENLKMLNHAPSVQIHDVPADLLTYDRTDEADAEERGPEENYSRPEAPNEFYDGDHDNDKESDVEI
T3 sequence (O75376 395-489 partner limits assumed): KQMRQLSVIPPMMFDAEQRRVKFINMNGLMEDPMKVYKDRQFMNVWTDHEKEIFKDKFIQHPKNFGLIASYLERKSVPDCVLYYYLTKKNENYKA
T1 sequence (Q13547 whole entry): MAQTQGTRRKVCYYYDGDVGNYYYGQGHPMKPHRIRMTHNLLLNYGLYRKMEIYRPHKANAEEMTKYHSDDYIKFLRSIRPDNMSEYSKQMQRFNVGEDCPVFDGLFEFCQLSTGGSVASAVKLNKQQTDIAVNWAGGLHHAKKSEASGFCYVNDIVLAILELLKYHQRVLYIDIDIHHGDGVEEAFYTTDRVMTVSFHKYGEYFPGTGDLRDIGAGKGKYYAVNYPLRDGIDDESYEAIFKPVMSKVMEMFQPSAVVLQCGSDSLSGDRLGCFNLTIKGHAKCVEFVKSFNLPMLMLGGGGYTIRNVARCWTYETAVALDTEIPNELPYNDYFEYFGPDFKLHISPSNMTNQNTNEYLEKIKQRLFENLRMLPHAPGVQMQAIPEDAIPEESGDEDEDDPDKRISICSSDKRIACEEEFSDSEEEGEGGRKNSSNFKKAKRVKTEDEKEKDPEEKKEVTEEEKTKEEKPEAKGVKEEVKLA
T2 sequence (Q92769 whole entry): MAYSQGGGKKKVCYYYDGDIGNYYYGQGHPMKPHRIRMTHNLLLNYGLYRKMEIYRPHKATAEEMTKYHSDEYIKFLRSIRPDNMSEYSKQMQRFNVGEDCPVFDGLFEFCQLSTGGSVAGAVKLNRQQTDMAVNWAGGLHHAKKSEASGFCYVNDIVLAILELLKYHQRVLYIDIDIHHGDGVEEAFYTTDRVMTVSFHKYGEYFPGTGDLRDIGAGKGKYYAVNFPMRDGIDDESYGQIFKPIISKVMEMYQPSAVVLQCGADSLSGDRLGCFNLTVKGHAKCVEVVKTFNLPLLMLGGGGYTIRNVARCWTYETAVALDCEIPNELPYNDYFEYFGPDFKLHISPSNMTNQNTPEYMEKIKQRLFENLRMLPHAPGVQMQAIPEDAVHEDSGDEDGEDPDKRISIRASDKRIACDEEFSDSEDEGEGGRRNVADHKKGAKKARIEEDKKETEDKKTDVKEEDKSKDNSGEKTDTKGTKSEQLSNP

As for `O=C(/C=C/c1ccc2c(c1)CCC2NCCc1cc(Cl)cc(Cl)c1)NO` (stereo not drawn) [Compound 55, (E)-3-(1-((3,5-dichlorophenethyl)amino)-2,3-dihydro-1H-inden-5-yl)-N-hydroxyacrylamide], in test [1], the inhibition at 2 µM is above 80%, the inhibition at 10 µM was above 80% and the inhibition at 50 µM was above 80%. In test [2], the inhibition at 2 µM is above 80%, the inhibition at 10 µM is above 80% and the inhibition at 50 µM is above 80%. Moreover, in test [3], the inhibition at 2 µM is above 80%, the inhibition at 10 µM is above 80% and the inhibition at 50 µM is above 80%. In test [4], the inhibition at 4 µM was below 50%, the inhibition at 20 µM is below 50% and the inhibition at 50 µM is below 50%.

On to `CN(C)c1ccc(CCNC2CCc3cc(/C=C/C(=O)NO)ccc32)cc1` (stereo not drawn) [Compound 56, (E)-3-(1-((4-(dimethylamino)phenethyl)amino)-2,3-dihydro-1H-inden-5-yl)-N-hydroxyacrylamide], for which, in test [1], the inhibition at 2 µM is above 80%, the inhibition at 10 µM is above 80% and the inhibition at 50 µM was above 80%. Further, in test [2], the inhibition at 2 µM was above 80%, the inhibition at 10 µM was above 80% and the inhibition at 50 µM is above 80%. Also, in test [3], the inhibition at 2 µM is above 80%, the inhibition at 10 µM was above 80% and the inhibition at 50 µM was above 80%. Besides, in test [4], the inhibition at 4 µM was below 50%, the inhibition at 20 µM was below 50% and the inhibition at 50 µM is below 50%.

With `Nc1cc(F)ccc1NC(=O)/C=C/c1ccc2c(c1)CCC2NCCc1c[nH]c2ccccc12` (stereo not drawn) [Compound 57, (E)-3-(1-((2-(1H-indol-3-yl)ethyl)amino)-2,3-dihydro-1H-inden-5-yl)-N-(2-amino-4-fluorophenyl)acrylamide], in test [1], the inhibition at 2 µM is below 50%, the inhibition at 10 µM was in the range of 50 to 80% and the inhibition at 50 µM was above 80%. In test [2], the inhibition at 2 µM lay in the range of 50 to 80%, the inhibition at 10 µM was above 80% and the inhibition at 50 µM is above 80%. In test [3], the inhibition at 2 µM is above 80%, the inhibition at 10 µM was above 80% and the inhibition at 50 µM is above 80%. Moreover, in test [4], the inhibition at 4 µM was below 50%, the inhibition at 20 µM was below 50% and the inhibition at 50 µM was below 50%.

Consider `O=C(/C=C/c1ccc2c(c1)CCC2NCCc1c[nH]c2ccccc12)NO` (stereo not drawn) [Compound 58, (E)-3-(1-((2-(1H-indol-3-yl)ethyl)amino)-2,3-dihydro-1H-inden-5-yl)-N-hydroxyacrylamide], for which, in test [1], the inhibition at 2 µM was above 80%, the inhibition at 10 µM is above 80% and the inhibition at 50 µM is above 80%. In test [2], the inhibition at 2 µM is above 80%, the inhibition at 10 µM was above 80% and the inhibition at 50 µM was above 80%. In addition, in test [3], the inhibition at 2 µM was above 80%, the inhibition at 10 µM was above 80% and the inhibition at 50 µM is above 80%. Further, in test [4], the inhibition at 4 µM is below 50%, the inhibition at 20 µM was below 50% and the inhibition at 50 µM lay in the range of 50 to 80%.

`Cc1[nH]c2ccccc2c1CCNC1CCc2cc(/C=C/C(=O)Nc3ccc(F)cc3N)ccc21` (stereo not drawn) [Compound 59, (E)-N-(2-amino-4-fluorophenyl)-3-(1-((2-(2-methyl-1H-indol-3-yl)ethyl)amino)-2,3-dihydro-1H-inden-5-yl)acrylamide]: in test [1], the inhibition at 2 µM was in the range of 50 to 80%, the inhibition at 10 µM was above 80% and the inhibition at 50 µM is above 80%. For the same compound, in test [2], the inhibition at 2 µM is above 80%, the inhibition at 10 µM is above 80% and the inhibition at 50 µM is above 80%. For the same compound, in test [3], the inhibition at 2 µM is above 80%, the inhibition at 10 µM was above 80% and the inhibition at 50 µM was above 80%. In test [4], this compound came in with an inhibition at 4 µM below 50%, an inhibition at 20 µM below 50% and an inhibition at 50 µM below 50%.

Take `Cc1[nH]c2ccccc2c1CCNC1CCc2cc(/C=C/C(=O)NO)ccc21` (stereo not drawn) [Compound 60, (E)-N-hydroxy-3-(1-((2-(2-methyl-1H-indol-3-yl)ethyl)amino)-2,3-dihydro-1H-inden-5-yl)acryl amide]: in test [1], the inhibition at 2 µM is above 80%, the inhibition at 10 µM was above 80% and the inhibition at 50 µM was above 80%. Besides, in test [2], the inhibition at 2 µM is above 80%, the inhibition at 10 µM is above 80% and the inhibition at 50 µM is above 80%. In test [3], the inhibition at 2 µM is above 80%, the inhibition at 10 µM was above 80% and the inhibition at 50 µM is above 80%. In test [4], this compound showed an inhibition at 4 µM below 50%, an inhibition at 20 µM below 50% and an inhibition at 50 µM below 50%.

Take `O=C(/C=C/c1ccc2c(c1)CCCC2NCCc1c[nH]c2ccccc12)NO` (stereo not drawn) [Compound 61, (E)-3-(5-((2-(1H-indol-3-yl)ethyl)amino)-5,6,7,8-tetrahydronaphthalen-2-yl)-N-hydroxy acrylamide]: in test [1], the inhibition at 2 µM is above 80%, the inhibition at 10 µM is above 80% and the inhibition at 50 µM is above 80%. For the same compound, in test [2], the inhibition at 2 µM is above 80%, the inhibition at 10 µM was above 80% and the inhibition at 50 µM is above 80%. Also, in test [3], the inhibition at 2 µM is above 80%, the inhibition at 10 µM is above 80% and the inhibition at 50 µM is above 80%. Also, in test [4], the inhibition at 4 µM was below 50%, the inhibition at 20 µM is below 50% and the inhibition at 50 µM is below 50%.

On to `Cc1[nH]c2ccccc2c1CCNC1CCCc2cc(/C=C/C(=O)Nc3ccc(F)cc3N)ccc21` (stereo not drawn) [Compound 62, (E)-N-(2-amino-4-fluorophenyl)-3-(5-((2-(2-methyl-1H-indol-3-yl)ethyl)amino)-5,6,7,8-tetrahydronaphthalen-2-yl)acrylamide], for which, in test [1], the inhibition at 2 µM fell in the range of 50 to 80%, the inhibition at 10 µM is above 80% and the inhibition at 50 µM was above 80%. Further, in test [2], the inhibition at 2 µM was above 80%, the inhibition at 10 µM is above 80% and the inhibition at 50 µM is above 80%. In addition, in test [3], the inhibition at 2 µM was 50 to 80%, the inhibition at 10 µM was above 80% and the inhibition at 50 µM was above 80%. Also, in test [4], the inhibition at 4 µM is below 50%, the inhibition at 20 µM was below 50% and the inhibition at 50 µM was below 50%.

For the compound `Cc1[nH]c2ccccc2c1CCNC1CCCc2cc(/C=C/C(=O)NO)ccc21` (stereo not drawn) [Compound 63, (E)-N-hydroxy-3-(5-((2-(2-methyl-1H-indol-3-yl)ethyl)amino)-5,6,7,8-tetrahydronaphthalen-2-yl)acrylamide], in test [1], the inhibition at 2 µM was above 80%, the inhibition at 10 µM is above 80% and the inhibition at 50 µM is above 80%. Besides, in test [2], the inhibition at 2 µM is above 80%, the inhibition at 10 µM is above 80% and the inhibition at 50 µM is above 80%. In test [3], the inhibition at 2 µM is above 80%, the inhibition at 10 µM is above 80% and the inhibition at 50 µM was above 80%. In test [4], this compound yielded an inhibition at 4 µM below 50%, an inhibition at 20 µM below 50% and an inhibition at 50 µM below 50%.

Turning to `CN(C(=O)OCc1cc(C(F)(F)F)cc(C(F)(F)F)c1)C1CCc2cc(/C=C/C(=O)NO)ccc21` (stereo not drawn) [Compound 64, 3,5-bis(trifluoromethyl)benzyl (E)-(5-(3-(hydroxyamino)-3-oxoprop-1-en-1-yl)-2,3-dihydro-1H-inden-1-yl)(methyl)carbamate], in test [1], the inhibition at 2 µM lay within 50 to 80%, the inhibition at 10 µM was above 80% and the inhibition at 50 µM is above 80%. Further, in test [2], the inhibition at 2 µM fell in the range of 50 to 80%, the inhibition at 10 µM is above 80% and the inhibition at 50 µM is above 80%. In addition, in test [3], the inhibition at 2 µM is below 50%, the inhibition at 10 µM lay within 50 to 80% and the inhibition at 50 µM is above 80%. In test [4], the inhibition at 4 µM was in the range of 50 to 80%, the inhibition at 20 µM was 50 to 80% and the inhibition at 50 µM fell in the range of 50 to 80%.

`CN(C(=O)OCc1cc(C(F)(F)F)cc(C(F)(F)F)c1)C1CCc2ccc(/C=C/C(=O)NO)cc21` (stereo not drawn) [Compound 65, 3,5-bis(trifluoromethyl)benzyl (E)-(6-(3-(hydroxyamino)-3-oxoprop-1-en-1-yl)-2,3-dihydro-1H-inden-1-yl)(methyl)carbamate]: in test [1], the inhibition at 2 µM was below 50%, the inhibition at 10 µM is 50 to 80% and the inhibition at 50 µM is above 80%. In addition, in test [2], the inhibition at 2 µM fell in the range of 50 to 80%, the inhibition at 10 µM was above 80% and the inhibition at 50 µM was above 80%. In test [3], the inhibition at 2 µM is below 50%, the inhibition at 10 µM was in the range of 50 to 80% and the inhibition at 50 µM was above 80%. In test [4], this compound returned an inhibition at 4 µM above 80%, an inhibition at 20 µM above 80% and an inhibition at 50 µM above 80%.
